Laboratory results: ChEMBL document CHEMBL1201862, “PubChem BioAssay data set” (2004)
Calls of active or inactive are those of the source.

How the values were obtained:
[1] = Trypanosoma cruzi growth suppression in host cells – NIH3T3 host cells, beta-gal luminescence, confirmation (AID 2044); assay type: functional, cell-based;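 note: intracellular parasites grown in NIH/3T3 mouse fibroblasts as host cells; luminescent beta-galactosidase reporter signal from transgenic T. cruzi replicating inside host cells; inhibitors lower the luminescence signal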
[2] = non-specific 3'UTR reporter inhibition in Clone20-Shn3RL – cell-based, Renilla luciferase, cherry-picked, counter-screen for Shn3 inhibitor project, dose response (AID 624133); assay type: functional
Protein RecA = target: T1, Protein RecA (Mycobacterium tuberculosis, UniProt P9WHJ3); test: Fluorescence Cell-Free Homogeneous Dose Retest to Identify Inhibitors of RecA-Intein Splicing Activity. [Related pubchem assays (depositor defined):AID2097, AID2223, AID489010, AID492950]; assay type: functional
T1 sequence (P9WHJ3 whole entry): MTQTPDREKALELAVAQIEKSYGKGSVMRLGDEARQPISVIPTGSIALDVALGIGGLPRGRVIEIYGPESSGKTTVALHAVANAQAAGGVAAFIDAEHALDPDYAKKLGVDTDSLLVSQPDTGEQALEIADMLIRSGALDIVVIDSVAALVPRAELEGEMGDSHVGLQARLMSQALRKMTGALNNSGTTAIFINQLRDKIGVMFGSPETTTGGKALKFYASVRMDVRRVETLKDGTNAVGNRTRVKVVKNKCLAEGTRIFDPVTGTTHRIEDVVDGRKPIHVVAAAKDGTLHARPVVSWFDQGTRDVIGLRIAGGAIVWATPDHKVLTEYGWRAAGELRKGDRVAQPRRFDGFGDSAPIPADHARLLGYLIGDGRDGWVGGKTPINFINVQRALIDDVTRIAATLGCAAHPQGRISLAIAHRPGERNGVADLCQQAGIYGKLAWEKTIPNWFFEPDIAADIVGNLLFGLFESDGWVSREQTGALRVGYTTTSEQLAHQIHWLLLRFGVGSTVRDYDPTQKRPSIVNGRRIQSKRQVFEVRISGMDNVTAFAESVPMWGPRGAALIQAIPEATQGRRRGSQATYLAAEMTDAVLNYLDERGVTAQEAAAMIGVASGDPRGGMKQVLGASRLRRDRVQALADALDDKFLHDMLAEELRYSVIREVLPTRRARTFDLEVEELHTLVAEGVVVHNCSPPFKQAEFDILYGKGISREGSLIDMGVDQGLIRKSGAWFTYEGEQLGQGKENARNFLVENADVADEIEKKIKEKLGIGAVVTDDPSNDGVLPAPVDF

[3] = reduction of Shn3 3'UTR-driven luciferase in osteoblasts – cell-based, Clone20 osteoblasts, firefly luciferase, cherry-picked, dose response (AID 624132); assay type: functional;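 note: firefly luciferase luminescence from reporter carrying the Shn3 3'UTR in osteoblasts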
[4] = target: DNA damage-inducible transcript 3 protein (Mus musculus, UniProt P35639); assay type: functional, Cricetulus griseus
[5] = target: T2, Replicative DNA helicase DnaB (Mycobacterium tuberculosis, UniProt P9WMR3); test: DnaB intein splicing inhibitors, dose response, biochemical, cell-free fluorescence (AID 449749); assay type: functional
T2 sequence (P9WMR3 whole entry): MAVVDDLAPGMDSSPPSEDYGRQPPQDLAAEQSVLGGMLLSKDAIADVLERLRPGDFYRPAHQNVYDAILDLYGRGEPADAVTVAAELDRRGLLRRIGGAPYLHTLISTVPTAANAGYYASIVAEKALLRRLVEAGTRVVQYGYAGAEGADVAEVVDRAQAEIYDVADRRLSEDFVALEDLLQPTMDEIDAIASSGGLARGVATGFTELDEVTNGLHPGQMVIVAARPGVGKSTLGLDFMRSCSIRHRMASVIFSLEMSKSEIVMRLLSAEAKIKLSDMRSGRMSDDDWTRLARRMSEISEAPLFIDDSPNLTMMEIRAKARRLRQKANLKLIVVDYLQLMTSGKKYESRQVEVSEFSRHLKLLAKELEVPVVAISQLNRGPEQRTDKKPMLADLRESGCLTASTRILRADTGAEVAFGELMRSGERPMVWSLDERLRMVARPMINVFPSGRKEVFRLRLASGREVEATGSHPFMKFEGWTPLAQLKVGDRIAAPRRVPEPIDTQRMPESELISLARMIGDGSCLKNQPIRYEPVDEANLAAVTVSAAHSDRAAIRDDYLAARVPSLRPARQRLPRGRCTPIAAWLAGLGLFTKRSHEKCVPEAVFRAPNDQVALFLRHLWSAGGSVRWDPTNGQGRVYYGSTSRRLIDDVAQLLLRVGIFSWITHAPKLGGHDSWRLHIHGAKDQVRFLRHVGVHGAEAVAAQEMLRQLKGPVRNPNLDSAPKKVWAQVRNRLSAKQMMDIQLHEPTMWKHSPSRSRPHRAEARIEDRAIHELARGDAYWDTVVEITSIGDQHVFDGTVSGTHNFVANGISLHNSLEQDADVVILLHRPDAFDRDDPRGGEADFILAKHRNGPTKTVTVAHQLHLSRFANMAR

[6] = NIH3T3 cell viability loss – ATP luminescence, mouse fibroblasts, counter-screen, dose response (AID 2010); assay type: functional, cell-based;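 note: cells exposed to compound for about 90 hours before reading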
[7] = Intein inhibitors as potential Tuberculosis drugs, a cytotoxicity screen. [Related pubchem assays (depositor defined):AID2221, AID2223, AID434968, AID435010, AID449749, AID449750, AID489010]; assay type: functional
[8] = target: Neurotensin receptor type 1 (Homo sapiens, UniProt P30989); assay type: functional;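 note: Image-based confirmatory dose-response assay measuring agonist activity at NTR1; NTR1-expressing U2OS osteosarcoma cells imaged for beta-arrestin GFP spot formation; agonist potency where compounds increase beta-arrestin recruitment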
[9] = loss of viability in HepG2 cells – cell-based, CellTiter-Glo, cherry-picked, cytotoxicity control for Shn3 inhibitor project, dose response (AID 624134); assay type: functional
Beta-galactosidase = Beta-galactosidase (Escherichia coli, UniProt Q8VNN2); assay type: functional
[10] = target: T3, Kappa-type opioid receptor (Homo sapiens, UniProt P41145); assay type: functional
[11] = target: T4, Heat shock factor protein 1 (Mus musculus, UniProt P38532); test: enhancement of HSF1-driven luciferase signal – cell-based, NIH3T3, luminescence, dose retest, confirmation (AID 435004); assay type: functional;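 note: stress induced by proteasome inhibitor MG132 added 30 min after compound; luciferase reporter driven by HSF1 response element in NIH3T3 cells; actives raise luminescence as potentiators of the MG132 stress response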
T4 sequence (P38532 whole entry): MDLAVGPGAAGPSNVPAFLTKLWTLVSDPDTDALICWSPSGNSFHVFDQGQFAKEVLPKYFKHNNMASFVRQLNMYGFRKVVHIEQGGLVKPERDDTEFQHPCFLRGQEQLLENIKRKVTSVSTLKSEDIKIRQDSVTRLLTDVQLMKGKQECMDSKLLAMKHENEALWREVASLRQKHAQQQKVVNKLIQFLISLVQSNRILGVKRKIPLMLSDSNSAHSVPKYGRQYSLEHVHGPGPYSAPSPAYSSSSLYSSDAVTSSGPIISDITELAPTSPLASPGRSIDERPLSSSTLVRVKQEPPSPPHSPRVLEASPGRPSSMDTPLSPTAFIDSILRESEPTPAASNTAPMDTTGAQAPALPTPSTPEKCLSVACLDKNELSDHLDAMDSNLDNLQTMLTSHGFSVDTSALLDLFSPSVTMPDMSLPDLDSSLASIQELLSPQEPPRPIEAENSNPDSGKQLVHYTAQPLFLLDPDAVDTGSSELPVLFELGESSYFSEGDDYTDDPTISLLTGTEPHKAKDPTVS

[12] = target: Heat shock protein HSP 90-alpha (Homo sapiens, UniProt P07900); assay type: functional, organism-based
[13] = target: T3, Kappa-type opioid receptor; assay type: functional; remark: listed apart in the source
[14] = target: Sphingosine 1-phosphate receptor 2 (Homo sapiens, UniProt O95136); test: Dose Response Cell Based Assay for Antagonists of the S1P2 Receptor. [Related pubchem assays: 856, 736 ]; assay type: functional
[15] = target: T5, Polyadenylate-binding protein 1 (Homo sapiens, UniProt P11940); test: PABP inhibition in translation initiation, SAR follow-up (AID 435018); assay type: functional
[16] = target: T6, Eukaryotic translation initiation factor 4H (Homo sapiens, UniProt Q15056); test: eIF4H binding inhibition – biochemical, uHTS, fluorescence polarization, translation initiation inhibitor project, primary screen (AID 2012)
[17] = target: T5, Polyadenylate-binding protein 1; test: blockers of PABP interaction with poly(A) – biochemical, fluorescence polarization, […] (AID 2014)
[18] = target: T6, Eukaryotic translation initiation factor 4H; test: inhibitors of translation initiation factor eIF4H – SAR follow-up (AID 435011); assay type: functional
Ion channel NompC = Ion channel NompC (Danio rerio, UniProt Q7T1G6); test: Dose response cell-based high-throughput screening assay for agonists of the transient receptor potential channel N1 (TRPN1). [Related pubchem assays (depositor defined):AID1424, AID1448]; assay type: functional
[19] = target: T7, Voltage-gated N-type calcium channel alpha-1B subunit/Amyloid beta A4 precursor protein-binding family A member 1 (Homo sapiens, UniProt Q00975+Q02410); assay type: protein assay
[20] = target: T7, Voltage-gated N-type calcium channel alpha-1B subunit/Amyloid beta A4 precursor protein-binding family A member 1; assay type: protein assay; remark: listed apart in the source
Mucolipin-3 = Mucolipin-3 (Homo sapiens, UniProt Q8TDD5); test: Fluorescence counterscreen assay for […] agonists: dose response cell-based high-throughput screening assay to identify agonists of the transient receptor potential channel ML3 (TRPML3). [Related pubchem assays: 1424, 1448 ]; assay type: functional
[21] = target: T8, Alkaline phosphatase, tissue-nonspecific isozyme (Homo sapiens, UniProt P05186); test: potency against alkaline phosphatase TNAP – biochemical, luminescent, dose response, SAR follow-up (AID 1056)
T8 sequence (P05186 whole entry): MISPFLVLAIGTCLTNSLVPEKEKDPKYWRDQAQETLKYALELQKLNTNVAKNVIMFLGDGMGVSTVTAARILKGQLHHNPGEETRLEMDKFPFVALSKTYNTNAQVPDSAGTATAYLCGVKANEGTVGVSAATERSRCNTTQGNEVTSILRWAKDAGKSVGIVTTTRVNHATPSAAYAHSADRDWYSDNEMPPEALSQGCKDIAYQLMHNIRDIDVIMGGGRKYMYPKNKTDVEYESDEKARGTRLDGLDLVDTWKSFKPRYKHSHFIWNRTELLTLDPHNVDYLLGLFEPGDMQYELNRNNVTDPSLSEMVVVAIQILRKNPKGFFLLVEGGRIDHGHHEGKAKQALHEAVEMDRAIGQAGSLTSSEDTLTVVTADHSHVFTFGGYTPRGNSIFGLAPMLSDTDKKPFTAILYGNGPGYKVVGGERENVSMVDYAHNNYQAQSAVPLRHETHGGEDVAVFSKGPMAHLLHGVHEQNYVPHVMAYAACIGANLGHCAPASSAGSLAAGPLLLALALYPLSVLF

[22] = target: Alkaline phosphatase, placental type (Homo sapiens, UniProt P05187); test: human placental alkaline phosphatase inhibition – biochemical, luminescence, confirmation (AID 1512); assay type: functional
[23] = target: Glyceraldehyde-3-phosphate dehydrogenase (Homo sapiens, UniProt P04406)
INS1 = test: INS-1E survival protection against cytokine death – cell-based, luminescence, retest, dose response (AID 449756); assay type: functional; conditions: Rattus norvegicus;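 note: cell death triggered by IL-1 beta plus TNF-alpha plus IFN-gamma mixture; protective hits raise ATP signal compared with cytokine alone wells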
[24] = Luminescence Cell-Based Dose Retest to Confirm Inhibitors of Cancer Stem Cells. [Related pubchem assays (depositor defined):AID2717, AID2721]; assay type: functional; conditions: Homo sapiens
Integrin alpha-4 = Integrin alpha-4 (Homo sapiens, UniProt P13612); test: allosteric modulators of alpha4 integrin VLA-4 – cell-based, LIBS antibody binding, flow cytometry, SAR follow-up (AID 488791); assay type: functional
Melanocortin receptor 4 = Melanocortin receptor 4 (Homo sapiens, UniProt P32245); assay type: functional, cell-based;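 note: Cell-based assay with luminescence read-out, confirmatory dose-response testing for agonist activity of biased ligands at MC4R; human U2OS cells with tagged receptor and beta-arrestin; potency of agonists that increase receptor coupling to beta-arrestin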
[25] = target: T9, Ubiquitin-conjugating enzyme E2 N (Homo sapiens, UniProt P61088); assay type: functional;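 note: Dose-response confirmation in a TR-FRET assay detecting UBC13-driven polyubiquitin chain formation, inhibition measured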
T9 sequence (P61088 whole entry): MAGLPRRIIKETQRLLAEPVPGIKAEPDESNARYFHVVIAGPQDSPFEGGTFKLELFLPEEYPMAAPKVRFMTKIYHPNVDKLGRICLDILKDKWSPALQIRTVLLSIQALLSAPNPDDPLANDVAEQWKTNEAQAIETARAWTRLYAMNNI

Hexokinase = Hexokinase (Trypanosoma brucei, UniProt Q38C41); test: Confirmation assay for inhibitors of Trypanosoma brucei hexokinase 1-Analogue-first series. [Related pubchem assays (depositor defined):AID1430, AID1632, AID2516, AID2560, AID2579, AID2600, AID449725, AID492951]; assay type: functional
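Throughout, for CC50: cells exposed to compound for 72 hours before luminescence readout.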

T3 sequence (P41145 whole entry): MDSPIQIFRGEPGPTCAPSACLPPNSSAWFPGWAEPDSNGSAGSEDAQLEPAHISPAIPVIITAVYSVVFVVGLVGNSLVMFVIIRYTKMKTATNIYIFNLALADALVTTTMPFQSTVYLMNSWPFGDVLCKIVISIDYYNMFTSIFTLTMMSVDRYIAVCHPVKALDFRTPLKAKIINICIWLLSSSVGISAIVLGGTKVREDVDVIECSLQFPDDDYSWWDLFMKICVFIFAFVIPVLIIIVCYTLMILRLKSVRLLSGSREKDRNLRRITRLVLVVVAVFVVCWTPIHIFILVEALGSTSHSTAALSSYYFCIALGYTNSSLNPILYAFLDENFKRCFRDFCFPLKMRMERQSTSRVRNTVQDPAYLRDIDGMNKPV
T5 sequence (P11940 whole entry): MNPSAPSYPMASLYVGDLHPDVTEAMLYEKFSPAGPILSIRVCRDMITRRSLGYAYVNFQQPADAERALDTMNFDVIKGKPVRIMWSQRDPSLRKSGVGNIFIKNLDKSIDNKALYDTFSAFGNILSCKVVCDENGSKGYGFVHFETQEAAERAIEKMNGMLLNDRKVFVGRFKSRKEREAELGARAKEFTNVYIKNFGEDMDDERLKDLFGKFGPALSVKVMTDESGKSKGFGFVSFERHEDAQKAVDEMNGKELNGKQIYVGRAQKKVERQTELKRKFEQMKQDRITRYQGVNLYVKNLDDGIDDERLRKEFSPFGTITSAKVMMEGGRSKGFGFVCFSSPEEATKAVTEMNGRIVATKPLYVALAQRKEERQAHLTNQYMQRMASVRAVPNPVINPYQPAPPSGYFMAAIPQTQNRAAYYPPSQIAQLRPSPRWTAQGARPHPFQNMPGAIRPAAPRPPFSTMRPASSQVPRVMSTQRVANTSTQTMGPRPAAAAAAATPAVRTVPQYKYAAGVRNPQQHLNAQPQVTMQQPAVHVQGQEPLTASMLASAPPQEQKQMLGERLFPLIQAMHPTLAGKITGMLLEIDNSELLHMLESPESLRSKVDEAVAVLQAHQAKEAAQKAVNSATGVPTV
T7 sequence (Q00975 whole entry): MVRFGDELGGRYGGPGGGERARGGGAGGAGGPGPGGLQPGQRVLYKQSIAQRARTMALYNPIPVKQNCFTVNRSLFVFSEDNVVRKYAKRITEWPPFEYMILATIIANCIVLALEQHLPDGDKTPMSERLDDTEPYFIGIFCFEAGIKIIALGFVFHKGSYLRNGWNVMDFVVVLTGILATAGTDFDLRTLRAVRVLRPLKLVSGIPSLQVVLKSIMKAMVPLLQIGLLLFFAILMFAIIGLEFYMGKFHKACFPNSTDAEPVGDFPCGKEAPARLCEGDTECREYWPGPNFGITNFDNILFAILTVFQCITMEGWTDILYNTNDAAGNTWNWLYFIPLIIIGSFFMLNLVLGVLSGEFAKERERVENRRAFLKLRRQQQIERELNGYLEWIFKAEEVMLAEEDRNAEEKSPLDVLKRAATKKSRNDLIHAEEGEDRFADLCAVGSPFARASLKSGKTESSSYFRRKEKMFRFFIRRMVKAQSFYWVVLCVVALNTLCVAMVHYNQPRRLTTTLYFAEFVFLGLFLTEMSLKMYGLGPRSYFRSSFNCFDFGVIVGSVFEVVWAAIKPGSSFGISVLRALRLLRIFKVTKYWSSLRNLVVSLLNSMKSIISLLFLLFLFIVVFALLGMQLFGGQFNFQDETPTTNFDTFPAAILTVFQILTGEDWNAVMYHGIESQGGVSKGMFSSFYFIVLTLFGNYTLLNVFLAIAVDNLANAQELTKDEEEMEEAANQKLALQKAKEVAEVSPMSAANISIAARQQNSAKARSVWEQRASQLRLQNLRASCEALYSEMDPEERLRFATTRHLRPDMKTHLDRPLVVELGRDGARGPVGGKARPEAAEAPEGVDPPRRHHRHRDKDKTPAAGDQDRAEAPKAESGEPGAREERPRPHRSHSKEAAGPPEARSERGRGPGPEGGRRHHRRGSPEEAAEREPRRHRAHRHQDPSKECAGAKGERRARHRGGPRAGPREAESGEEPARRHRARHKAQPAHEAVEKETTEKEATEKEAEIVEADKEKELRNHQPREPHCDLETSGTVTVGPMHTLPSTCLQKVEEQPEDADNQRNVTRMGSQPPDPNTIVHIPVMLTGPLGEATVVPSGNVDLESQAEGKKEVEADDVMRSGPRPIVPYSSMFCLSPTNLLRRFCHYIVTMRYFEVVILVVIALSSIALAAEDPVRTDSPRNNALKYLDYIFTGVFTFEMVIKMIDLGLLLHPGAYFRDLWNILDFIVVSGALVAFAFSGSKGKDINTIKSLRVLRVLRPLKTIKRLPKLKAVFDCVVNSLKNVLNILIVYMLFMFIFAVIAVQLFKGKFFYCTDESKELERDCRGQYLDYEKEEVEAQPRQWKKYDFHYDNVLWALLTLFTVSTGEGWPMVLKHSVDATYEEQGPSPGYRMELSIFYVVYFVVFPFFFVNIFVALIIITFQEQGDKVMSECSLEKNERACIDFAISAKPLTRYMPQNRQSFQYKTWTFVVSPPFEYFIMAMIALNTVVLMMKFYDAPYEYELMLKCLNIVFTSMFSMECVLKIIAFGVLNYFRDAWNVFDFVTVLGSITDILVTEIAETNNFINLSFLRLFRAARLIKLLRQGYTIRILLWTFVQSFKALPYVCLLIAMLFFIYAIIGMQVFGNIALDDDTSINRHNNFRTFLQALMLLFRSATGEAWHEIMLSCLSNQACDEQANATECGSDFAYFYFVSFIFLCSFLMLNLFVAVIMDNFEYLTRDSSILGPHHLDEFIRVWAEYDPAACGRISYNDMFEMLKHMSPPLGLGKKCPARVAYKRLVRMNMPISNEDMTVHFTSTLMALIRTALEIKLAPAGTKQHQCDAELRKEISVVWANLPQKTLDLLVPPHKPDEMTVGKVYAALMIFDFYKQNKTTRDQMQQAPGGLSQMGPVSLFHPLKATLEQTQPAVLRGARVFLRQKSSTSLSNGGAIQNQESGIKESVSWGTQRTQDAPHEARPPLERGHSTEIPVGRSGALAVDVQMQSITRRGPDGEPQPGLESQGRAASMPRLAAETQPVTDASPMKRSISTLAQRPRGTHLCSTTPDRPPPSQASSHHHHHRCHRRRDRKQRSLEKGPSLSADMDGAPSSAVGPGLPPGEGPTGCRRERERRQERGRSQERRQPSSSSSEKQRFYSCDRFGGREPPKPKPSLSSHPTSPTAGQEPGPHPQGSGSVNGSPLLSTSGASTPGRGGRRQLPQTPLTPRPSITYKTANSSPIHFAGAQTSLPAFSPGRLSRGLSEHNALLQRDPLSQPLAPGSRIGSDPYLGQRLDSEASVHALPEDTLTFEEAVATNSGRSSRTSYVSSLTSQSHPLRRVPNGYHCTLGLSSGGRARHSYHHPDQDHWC
T7 sequence (Q02410 whole entry): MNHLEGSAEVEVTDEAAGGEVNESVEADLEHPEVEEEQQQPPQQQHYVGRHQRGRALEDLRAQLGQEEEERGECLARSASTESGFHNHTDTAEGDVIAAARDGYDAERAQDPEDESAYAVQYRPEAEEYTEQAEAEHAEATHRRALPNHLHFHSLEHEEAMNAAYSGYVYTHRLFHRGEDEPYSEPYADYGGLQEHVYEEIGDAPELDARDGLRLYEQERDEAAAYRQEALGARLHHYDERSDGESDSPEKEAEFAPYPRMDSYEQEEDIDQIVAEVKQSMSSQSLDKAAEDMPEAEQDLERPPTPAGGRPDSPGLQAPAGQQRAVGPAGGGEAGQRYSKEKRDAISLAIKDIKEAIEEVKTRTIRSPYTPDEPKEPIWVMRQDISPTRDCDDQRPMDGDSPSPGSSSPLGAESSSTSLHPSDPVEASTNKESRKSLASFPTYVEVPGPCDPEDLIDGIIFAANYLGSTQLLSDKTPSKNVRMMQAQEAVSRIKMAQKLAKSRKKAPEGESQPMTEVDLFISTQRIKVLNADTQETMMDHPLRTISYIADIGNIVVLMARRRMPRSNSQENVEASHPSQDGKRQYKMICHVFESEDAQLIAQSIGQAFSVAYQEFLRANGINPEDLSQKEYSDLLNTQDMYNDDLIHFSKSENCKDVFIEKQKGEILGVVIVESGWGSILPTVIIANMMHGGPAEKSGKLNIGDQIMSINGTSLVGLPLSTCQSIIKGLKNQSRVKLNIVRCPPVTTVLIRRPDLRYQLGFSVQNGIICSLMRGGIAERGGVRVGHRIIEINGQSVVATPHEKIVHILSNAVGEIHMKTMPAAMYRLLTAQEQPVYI
Melanocortin receptor 4, sequence (P32245 whole entry): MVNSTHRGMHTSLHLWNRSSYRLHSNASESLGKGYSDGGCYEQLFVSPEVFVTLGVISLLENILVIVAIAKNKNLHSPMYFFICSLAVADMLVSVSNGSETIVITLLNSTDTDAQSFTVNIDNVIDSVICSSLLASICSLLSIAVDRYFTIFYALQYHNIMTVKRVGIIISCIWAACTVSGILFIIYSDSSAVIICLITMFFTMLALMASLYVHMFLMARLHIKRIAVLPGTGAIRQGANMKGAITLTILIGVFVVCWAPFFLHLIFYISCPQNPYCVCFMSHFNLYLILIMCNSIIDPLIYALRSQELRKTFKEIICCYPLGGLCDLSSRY
DNA damage-inducible transcript 3 protein, sequence (P35639 whole entry): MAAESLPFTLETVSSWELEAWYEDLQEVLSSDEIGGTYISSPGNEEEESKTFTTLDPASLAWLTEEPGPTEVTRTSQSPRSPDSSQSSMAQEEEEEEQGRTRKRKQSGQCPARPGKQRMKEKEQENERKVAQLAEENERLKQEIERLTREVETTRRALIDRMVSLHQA

Structure (SMILES): Cc1cc(Br)c2c(c1)/C(=C/C(=O)c1cccs1)C(=O)N2
- EC50 [1]: 1.95 µM (active)
- AC50 [2]: 20.7 µM (active)
- EC50 (Protein RecA): 3.27 µM (active)
- AC50 [3]: 19.9 µM (active)
- Absolute IC50 (CHOP) [4]: 10 µM
- AC50 [5]: 2.46 µM (active)
- EC50 [6]: > 60 µM (not active)
- CC50 [7]: 18.4 µM (active)
- EC50 [8]: 17.4 µM (active)
- AC50 [9]: 48.5 µM (active)

Structure (SMILES): O=C(C#Cc1cccc([N+](=O)[O-])c1)c1ccccc1
- EC50 (Beta-galactosidase): > 31.5 µM (inactive)
- IC50 [10]: > 32 µM
- EC50 [11]: 1.08 µM (inconclusive)
- AC50 [12]: 0.592 µM (active)
- IC50 [13]: 22.8 µM (inactive)
- IC50 [14]: 3.69 µM (active)

Structure (SMILES): COC(=O)c1c(Sc2ccccc2)c2ccccc2n1C
- IC50 [15]: 13.8 µM (active)
- IC50 [16]: > 100 µM (inactive)
- IC50 [17]: 2.76 µM (active)
- IC50 [18]: 4.23 µM (active)

Structure (SMILES): COc1cc(/C=C2\SC(=S)N(c3cccnc3)C2=O)ccc1O
- EC50 (Ion channel NompC): > 29.9 µM (inactive)
- IC50 [19]: > 50 µM (inactive)
- IC50 [20]: 4.4 µM (active)
- EC50 (Mucolipin-3): > 29.9 µM (not active)

Structure (SMILES): O=C(CSc1n[nH]c(-c2ccccc2Cl)n1)Nc1ccccc1F
- IC50 [21]: 4.7 µM (active)
- IC50 [22]: > 100 µM (inactive)
- IC50 [23]: > 100 µM (not active)

Structure (SMILES): CN(C)CCOc1ccc(-c2c(-c3ccccc3)sc3ccccc23)cc1
- AC50 (INS1): 6.82 µM (active)
- AC50 [24]: 2.93 µM (active)
- EC50 (Integrin alpha-4): > 30 µM (inactive)
- EC50 (Melanocortin receptor 4): > 89.2 µM (inactive)
- IC50 [25]: > 20 µM (inactive)

Structure (SMILES): Cn1c2ccccc2c(=O)n1-c1ccccc1
- IC50 (Hexokinase): > 25 µM (inactive)
